US20240374492A1, “A SUNSCREEN COMPOSITION COMPRISING AVOBENZONE AND A METHOD FOR PHOTOSTABILIZATION” (ISP Investments LLC, priority 2021, published 2024)

Assay: Photostability of avobenzone in combination with solvents (UV absorbance profile before and after 10 MED radiation)
Assay type: physicochemical
Conditions: avobenzone with the solvent; for Stability of Avobenzone: 10 MED radiation, solar simulator, UV absorbance 290-400 nm on PMMA plates; for Stability of avobenzone-solvent combination (UV absorbance profile after 10 MED radiation vs initial, FIG. 1 to FIG. 6): before and after 10 MED radiation
Source text: 10 minimal erythemal dose (MED) is a quantified dose of radiation that is known for causing skin damage. UV screening agents will eventually breakdown into smaller molecule after prolonged exposure to UV radiation. This is a common, expected phenomenon however, some UV screening agents will degrade faster within the time a person is exposed to sunlight. If the UV screening agent degrades, it loses the ability to absorb UV radiations and eventually results in a lower absorption profile, that translate into a lower SPF value.
If the absorption profile of a specimen, prepared from a UV screening agent-solvent combination, measured after a predefined exposure of 10 MED radiation, reads similar to that of its initial readings, then the UV screening agent is said to be stable in that particular combination of solvent.
Method of testing photostability: For each test formulations prepared according to Table-1 to Table-7, 1.80 mg/cm^2 of samples were deposited on PMMA (polymethyl methacrylate) plates and spread evenly using finger cots. Three plates were prepared for each product. The initial UV absorbance profile of each slide was measured with a UV-VIS spectrophotometer in the wavelength range of 290-400 nm. Four readings were taken for each slide. The test slides were then exposed to 10 MED radiation using a Solar Light LS1000R3 solar simulator. The slides were then equilibrated at room temperature for 15 minutes, and the UV absorbance profile post radiation was measured. The readings were then plotted to correlate initial absorbance behavior of the specimens to that of post radiation. Any degradation of the UV screening agent will result in a lower absorbance readings compared to that of the initial absorbance profile.
FIG. 1 to FIG. 6 illustrate graphs plotted based on UV absorbance profile measured before and after an exposure of 10 MED radiation on test specimens comprising combination of avobenzone and solvents selected from Table-8.

In the case of `Cc1ccccc1C(=O)OCc1ccccc1` [Benzyl o-toluate], the “Stability of Avobenzone” value is reported as “stable” and the “Stability of avobenzone-solvent combination (UV absorbance profile after 10 MED radiation vs initial, FIG. 1 to FIG. 6)” value is reported as “stable”.
For `O=C(OCc1ccccc1)c1ccccc1O` [Benzyl Salicylate], the “Stability of Avobenzone” value was “not stable”.
With `O=C(OCc1ccccc1)c1ccccc1` [Benzyl Benzoate] the “Stability of Avobenzone” value was “stable”.
For `Cc1cccc(C(=O)OCc2ccccc2)c1` [Benzyl m-toluate], the “Stability of Avobenzone” value was “not stable”.
For `Cc1ccccc1C(=O)OCCc1ccccc1` [2-Phenylethyl o-toluate], the “Stability of Avobenzone” value was “stable” and the “Stability of avobenzone-solvent combination (UV absorbance profile after 10 MED radiation vs initial, FIG. 1 to FIG. 6)” value was “stable”.
In the case of `CC(CCOC(=O)c1ccccc1)OC(=O)c1ccccc1` (stereo not drawn) [1,3-Butylene glycol Dibenzoate], the “Stability of Avobenzone” value is reported as “not stable” and the “Stability of avobenzone-solvent combination (UV absorbance profile after 10 MED radiation vs initial, FIG. 1 to FIG. 6)” value is reported as “highly instable”.
For `Cc1cccc(COC(=O)c2ccccc2)c1` [m-Methylbenzyl Benzoate], the “Stability of Avobenzone” value was “not stable”.
With `Cc1ccccc1COC(=O)c1ccccc1` [o-Methylbenzyl Benzoate] the “Stability of Avobenzone” value was “not stable”.
In the case of `O=C(OCCc1ccccc1)C1CCCCC1` [2-Phenylethyl Cyclohexanoate], the “Stability of Avobenzone” value is reported as “not stable”.
For `CCC(=O)OCCc1ccccc1` [2-Phenylethyl Propionate], the “Stability of Avobenzone” value was “not stable”.
In the case of `CC(C)(C)c1ccc(C(=O)OCc2ccccc2)cc1` [Benzyl 4-tert-Butylbenzoate], the “Stability of Avobenzone” value is reported as “not stable” and the “Stability of avobenzone-solvent combination (UV absorbance profile after 10 MED radiation vs initial, FIG. 1 to FIG. 6)” value is reported as “highly instable”.
In the case of `O=C(OCCC1CCCCC1)c1ccccc1` [2-Cyclohexylethyl Benzoate], the “Stability of Avobenzone” value is reported as “not stable”.
For `O=C(OC1CCCCC1)c1ccccc1` [Cyclohexyl Benzoate], the “Stability of Avobenzone” value was “not stable” and the “Stability of avobenzone-solvent combination (UV absorbance profile after 10 MED radiation vs initial, FIG. 1 to FIG. 6)” value was “highly instable”.
For `CCc1ccc(C(=O)OCc2ccccc2)cc1` [Benzyl 4-Ethylbenzoate], the “Stability of Avobenzone” value was “not stable”.
For `CCC(OC(=O)c1ccccc1)c1ccccc1` (stereo not drawn) [1-Phenylpropyl Benzoate], the “Stability of Avobenzone” value was “not stable”.
In the case of `CCCCCC(=O)OCCc1ccccc1` [2-Phenylethyl Hexanoate], the “Stability of Avobenzone” value is reported as “not stable”.
For `CC(COC(=O)c1ccccc1)OC(=O)c1ccccc1` (stereo not drawn) [Propylene glycol Dibenzoate], the “Stability of Avobenzone” value was “not stable” and the “Stability of avobenzone-solvent combination (UV absorbance profile after 10 MED radiation vs initial, FIG. 1 to FIG. 6)” value was “highly instable”.
In the case of `Cc1ccccc1C(=O)OC1CCCCC1` [Cyclohexyl o-toluate], the “Stability of Avobenzone” value is reported as “not stable” and the “Stability of avobenzone-solvent combination (UV absorbance profile after 10 MED radiation vs initial, FIG. 1 to FIG. 6)” value is reported as “highly instable”.
With `CCN(CC)C(=O)c1cccc(C)c1` [N,N-Diethyl m-toluamide] the “Stability of Avobenzone” value was “not stable” and the “Stability of avobenzone-solvent combination (UV absorbance profile after 10 MED radiation vs initial, FIG. 1 to FIG. 6)” value was “highly instable”.
For C12-C15 alkyl benzoate, the “Stability of Avobenzone” value was “not stable” and the “Stability of avobenzone-solvent combination (UV absorbance profile after 10 MED radiation vs initial, FIG. 1 to FIG. 6)” value was “highly instable”.
With `O=C(OCCc1ccccc1)c1ccccc1` [Phenethyl benzoate] the “Stability of Avobenzone” value was “stable” and the “Stability of avobenzone-solvent combination (UV absorbance profile after 10 MED radiation vs initial, FIG. 1 to FIG. 6)” value was “stable”.
In the case of `O=C(OCCCc1ccccc1)c1ccccc1` [3-Phenylpropyl Benzoate], the “Stability of Avobenzone” value is reported as “stable”.
In the case of `Cc1ccc(C(=O)OC(C)c2ccccc2)cc1` (stereo not drawn) [1-Phenylethyl p-toluate], the “Stability of Avobenzone” value is reported as “not stable”.
